Test results taken from US10196425B2, “Peptide compositions” (RHYTHM PHARMACEUTICALS, INC., priority 2013, dated 2019).
Bridge positions count the residues as written; N and C are the ends. Square brackets hold non-standard residues; d marks the D form. Peptide text beside a SMILES is read from it.

What was measured:
Assay type in all cases: cell-based
MC1R = MC1R (Homo sapiens, UniProt Q01726); assay: cAMP assay (β-galactosidase reporter, cAMP Hunter), MC1R; conditions: for Ratios of EC50 values MC ¼: EC50(MC1R)/EC50(MC4R); for EC50: agonist cAMP stimulation, read-out: cAMP Assay (EC-50) MC1R
Description: (§1) cAMP Accumulation Measurement Via a β-Galactosidase (β-Gal) Reporter System
(§2) A chemiluminescence readout system that uses an enzyme fragment complementation (EFC) system with β-galactosidase (β-Gal) as the functional reporter system was used. This assay system for various melanocortin receptor systems is commercially available (cAMP Hunter GPCR assay system, Discoverx Corp, Fremont, Calif.). This assay utilizes the β-Gal enzyme that is split into two complementary portions; EA for Enzyme Acceptor and ED for Enzyme Donor. In the assay, the ED portion fused to cAMP is made to compete with cAMP generated by cells for binding to a cAMP-specific antibody. The EA is then added to form active β-Gal with any unbound ED-cAMP.
(§3) Briefly, 10000 cells per well are plated overnight and each well (cells incubated with 10 μl assay buffer) is then incubated with 4× serial concentration of the test compound in the cell assay buffer (5 μL) and cAMP antibody reagent (5 μL) for 30 min at 37° C. The cell lysis buffer (20 μL) containing ED-cAMP coupled enzyme fragment and the reporter substrate (Emerald II-Galacton Star, 5:1) is then added and incubated for 60 min at room temperature. Next, 20 μL of EA β-Gal fragment reagent is added.

MC3R = MC3R (Homo sapiens, UniProt P41968); assay: cAMP assay (β-galactosidase reporter, cAMP Hunter), MC3R; conditions: for Ratios of EC50 values MC ¾: EC50(MC3R)/EC50(MC4R); for EC50: agonist cAMP stimulation, in uM, read-out: cAMP Assay (EC-50) MC3R
Description: as §1, §2, §3

MC4R = MC4R (Homo sapiens, UniProt P32245); assay: cAMP assay (β-galactosidase reporter, cAMP Hunter), MC4R; conditions: agonist cAMP stimulation; read-out: cAMP Assay (EC-50) MC4R
Description: as §1, §2, §3

MC5R = MC5R (Homo sapiens, UniProt P33032); assay: cAMP assay (β-galactosidase reporter, cAMP Hunter), MC5R; conditions: for Ratios of EC50 values MC 5/4: EC50(MC5R)/EC50(MC4R); for EC50: agonist cAMP stimulation, read-out: cAMP Assay (EC-50) MC5R
Description: as §1, §2, §3

Chain of MC1R (Q01726 whole entry): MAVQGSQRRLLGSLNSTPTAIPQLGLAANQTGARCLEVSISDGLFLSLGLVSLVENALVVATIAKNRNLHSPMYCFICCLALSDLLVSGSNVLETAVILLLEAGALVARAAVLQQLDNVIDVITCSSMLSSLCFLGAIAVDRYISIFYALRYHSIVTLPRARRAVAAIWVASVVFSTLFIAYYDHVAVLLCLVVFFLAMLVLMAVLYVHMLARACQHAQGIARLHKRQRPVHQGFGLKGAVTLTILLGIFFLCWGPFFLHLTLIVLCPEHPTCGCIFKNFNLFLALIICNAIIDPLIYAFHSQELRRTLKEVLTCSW
Chain of MC5R (P33032 whole entry): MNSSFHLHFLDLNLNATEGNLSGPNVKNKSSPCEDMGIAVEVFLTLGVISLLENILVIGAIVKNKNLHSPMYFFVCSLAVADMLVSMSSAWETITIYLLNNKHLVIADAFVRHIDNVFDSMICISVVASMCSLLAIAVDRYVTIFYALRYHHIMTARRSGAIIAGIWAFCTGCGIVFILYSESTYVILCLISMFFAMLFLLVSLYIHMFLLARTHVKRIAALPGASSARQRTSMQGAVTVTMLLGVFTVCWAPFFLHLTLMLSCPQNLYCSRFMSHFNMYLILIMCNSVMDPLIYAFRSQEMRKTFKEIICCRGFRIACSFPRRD
Chain of MC3R (P41968 whole entry): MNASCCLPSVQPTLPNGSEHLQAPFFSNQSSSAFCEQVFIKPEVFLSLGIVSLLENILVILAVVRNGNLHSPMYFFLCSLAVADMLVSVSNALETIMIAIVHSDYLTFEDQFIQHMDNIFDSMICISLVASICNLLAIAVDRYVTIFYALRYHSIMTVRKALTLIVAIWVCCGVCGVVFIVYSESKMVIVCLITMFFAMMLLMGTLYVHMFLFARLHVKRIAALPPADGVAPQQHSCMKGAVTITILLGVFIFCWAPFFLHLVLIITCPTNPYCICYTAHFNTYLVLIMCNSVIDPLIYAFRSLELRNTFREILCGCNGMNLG
Chain of MC4R (P32245 whole entry): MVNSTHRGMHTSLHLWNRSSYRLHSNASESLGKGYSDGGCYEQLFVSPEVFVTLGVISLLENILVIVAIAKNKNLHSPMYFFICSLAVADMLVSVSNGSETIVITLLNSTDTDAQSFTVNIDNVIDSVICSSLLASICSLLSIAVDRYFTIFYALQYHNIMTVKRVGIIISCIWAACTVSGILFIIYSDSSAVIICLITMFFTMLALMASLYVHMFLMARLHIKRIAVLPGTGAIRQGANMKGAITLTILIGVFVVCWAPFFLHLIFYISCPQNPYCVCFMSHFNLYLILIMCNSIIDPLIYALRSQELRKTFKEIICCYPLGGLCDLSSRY

Ratios of EC50 values MC ¼ (MC1R)	EC50 (MC1R) [nM]	Ratios of EC50 values MC ¾ (MC3R)	EC50 (MC3R) [µM]	EC50 (MC4R) [nM]	Ratios of EC50 values MC 5/4 (MC5R)	EC50 (MC5R) [nM]	SMILES
8	273	>290	> 10	34	7	259	CC(=O)N[C@@H](CCCNC(=N)N)C(=O)N[C@H]1CSSC[C@@H](C(N)=O)NC(=O)[C@H](Cc2c[nH]c3ccccc23)NC(=O)[C@H](CCCNC(=N)N)NC(=O)[C@@H](Cc2ccccc2)NC(=O)[C@H](Cc2c[nH]c3ccccc23)NC(=O)[C@@H](C)NC1=O [Compound 7, Ac-Arg-cyclo[Cys-D-Ala-Trp-D-Phe-Arg-Trp-Cys ]-NH2] (Ac-RC[dA]W[dF]RWC-NH2; disulfide 2-8)
5	280	>200	> 10	56	13	707	CC(=O)N[C@@H](CCCNC(=N)N)C(=O)N[C@H]1CSSC[C@@H](C(N)=O)NC(=O)[C@H](Cc2c[nH]c3ccccc23)NC(=O)[C@H](CCCNC(=N)N)NC(=O)[C@@H](Cc2ccccc2)NC(=O)[C@@H]2CCCN2C(=O)[C@@H](C)NC1=O [Compound 13, Ac-Arg-cyclo[Cys-D-Ala-Pro-D-Phe-Arg-Trp-Cys]-NH2] (Ac-RC[dA]P[dF]RWC-NH2; disulfide 2-8)
